# Laboratory results taken from publication PMC7516806, “Hybrid Antimicrobial Peptide Targeting Staphylococcus aureus and Displaying Anti-infective Activity in a Murine Model” (Frontiers in Microbiology, 2020).
# Positions of bridges follow the written chain, without caps; N, C: chain ends. Residues, ends and D or L forms follow the SMILES beside them.
# Columns and labels:
# S. aureus 29213 [1] = assay: Histology (HE) of infected skin tissue; assay type: in vivo, ICR mice; details: 24 h after injection of S. aureus
# Experimental: (§1) To assess the antimicrobial activity of the peptide in vivo, a mouse model of subcutaneous infection was used ([Huang et al., 2011a]; [Omolo et al., 2017]). Female Institute for Cancer Research (ICR) mice (SPF, 20–25 g) were purchased from WeiTonglihua Co., Ltd. (Beijing, China), with eight animals per group. The mice were shaved on their backs and disinfected. S. aureus 29213 (100 μL) at a concentration of 1 × 10^8 CFU/mL was injected into the superficial skin of the mice. The mice were divided into four groups (n = 4), as follows: S. aureus + saline, S. aureus + S2 (80× MIC, 100 μL), S. aureus + vancomycin (Van) (80× MIC, 100 μL), and saline. S2, vancomycin, and saline were injected at the same site 1 h after infection. The mice were monitored over 24 h in an environmentally controlled room at 25 ± 1°C and 55 ± 5% relative humidity with a 12 h light/dark cycle.
# (§2) To image the infected skin tissues, the mice were euthanized 24 h after the injection of S. aureus. Samples were fixed in 4% buffered paraformaldehyde and subjected to hematoxylin/eosin (HE) staining. The antimicrobial activity in vivo was determined by colony counting of infected skin samples. Skin homogenates were serially diluted in saline and incubated at 37°C for 24 h.
# TNF-α = assay: Cytokine ELISA in infected skin; assay type: in vivo, ICR mice; details: 24 h after treatment, P < 0.05
# Experimental: as §1
# (§3) The mice were treated as described above. Skin samples were treated according to the manufacturer’s instructions. The levels of tumor necrosis factor-alpha (TNF-α), interleukin-6 (IL-6), and granulocyte-macrophage colony-stimulating factor (GM-CSF) in infected skin were measured using enzyme-linked immunosorbent assay (ELISA) kits following the manufacturer’s instructions.
# IL-6 = assay: Cytokine ELISA in infected skin; assay type: in vivo, ICR mice; details: 24 h after treatment, P < 0.05
# Experimental: as §1, §3
# S. aureus 29213 [2] = assay: Mouse model of subcutaneous infection; assay type: in vivo, ICR mice; details: 80× MIC
# Experimental: as §1, §2
# [3] = system: panel of bacterial species; assay: MIC against a panel of bacterial species (summary statements); assay type: cell-based; details: all tested bacteria, up to the highest concentration measured
# Excerpt: (§4) The experiment was repeated at least three times independently.
# E. coli K99 = details: MHB, 2–7 × 10^5 CFU/ml, 37°C, 24 h, no turbidity, at least three independent repeats
# Excerpt: (§5) The bacterial strains Escherichia coli (E. coli) ATCC 25922, E. coli K88, E. coli K99, Pseudomonas aeruginosa (P. aeruginosa) ATCC 27853, Escherichia coli (E. coli) UB1005, Salmonella typhimurium 14028, Salmonella pullorum (S. pullorum) C7913, S. typhimurium C7731, S. aureus ATCC 29213, MRSA ATCC 43300, and S. aureus ATCC 25923 were obtained from the College of Veterinary Medicine, Northeast Agricultural University, China. Lactobacillus plantarum (L. plantarum) 8014, Lactobacillus rhamnosus (L. rhamnosus) 7469, L. rhamnosus 1.0911, L. rhamnosus 1.0936, and L. rhamnosus 1.0385 were obtained from the Key Laboratory of Food College, Northeast Agricultural University, China.
# (§6) As in a previous study, the antimicrobial activities of the AMPs were investigated using a modified standard microtiter dilution method ([Dong et al., 2014]). The peptides were serially diluted with a solution containing 0.01% acetic acid and 0.2% bovine serum albumin (BSA, Sigma) in 96-well plates. The bacteria grew to the mid-log phase and then were dissolved in MHB at concentration of 2–7 × 10^5 CFU/ml. The peptides and bacterial solution were mixed in equal volume in a 37°C incubator for 24 h. […] Mueller-Hinton broth with microorganisms was used as the positive control, and the pure broth was used as the negative control. The experiment was repeated at least three times independently.
# E. coli K88 = details: MHB, 2–7 × 10^5 CFU/ml, 37°C, 24 h, no turbidity, at least three independent repeats
# Excerpt: as §5, §6
# S. aureus 29213 [4] = assay: MIC in the presence of physiological salts; assay type: cell-based, Staphylococcus aureus; details: three independent repeats, unit not given in Table 4
# Experimental: as §4
# The MIC of peptides was determined in the presence of salts at physiological concentrations (150 mM NaCl, 4.5 mM KCl, 6 μM NH4Cl, 8 μM ZnCl2, 1 mM MgCl2, 2 mM CaCl2, and 4 μM FeCl3) as described previously ([Dong et al., 2014]). All experiments were performed three times independently.
# S. pullorum 7913 = assay: MIC, modified microtiter dilution; assay type: cell-based, Salmonella pullorum; details: MHB, 2–7 × 10^5 CFU/ml, 37°C, 24 h, no turbidity, at least three independent repeats
# Excerpt: as §4
# P. aeruginosa 27853 = assay: MIC, modified microtiter dilution; assay type: cell-based, Pseudomonas aeruginosa; details: MHB, 2–7 × 10^5 CFU/ml, 37°C, 24 h, no turbidity, at least three independent repeats
# Excerpt: as §4
# L. plantarum 8014 = assay: MIC, modified microtiter dilution; assay type: cell-based, Lactobacillus plantarum; details: 2–7 × 10^5 CFU/ml, 37°C, 24 h, no turbidity, at least three independent repeats
# Excerpt: as §4
# L. rhamnosus 1.0385 = assay: MIC, modified microtiter dilution; assay type: cell-based, Lactobacillus rhamnosus; details: 2–7 × 10^5 CFU/ml, 37°C, 24 h, no turbidity, at least three independent repeats
# Excerpt: as §4
# L. rhamnosus 7469 = assay: MIC, modified microtiter dilution; assay type: cell-based, Lactobacillus rhamnosus; details: 2–7 × 10^5 CFU/ml, 37°C, 24 h, no turbidity, at least three independent repeats
# Excerpt: as §4
# L. rhamnosus 1.0936 = assay: MIC, modified microtiter dilution; assay type: cell-based, Lactobacillus rhamnosus; details: 2–7 × 10^5 CFU/ml, 37°C, 24 h, no turbidity, at least three independent repeats
# Excerpt: as §4
# L. rhamnosus 1.0911 = assay: MIC, modified microtiter dilution; assay type: cell-based, Lactobacillus rhamnosus; details: 2–7 × 10^5 CFU/ml, 37°C, 24 h, no turbidity, at least three independent repeats
# Excerpt: as §4
# MRSA 43300 = assay type: cell-based, Staphylococcus aureus; details: MHB, 2–7 × 10^5 CFU/ml, 37°C, 24 h, no turbidity, at least three independent repeats
# Excerpt: as §4
# S. typhimurium 7731 = assay: MIC, modified microtiter dilution; assay type: cell-based, Salmonella typhimurium; details: MHB, 2–7 × 10^5 CFU/ml, 37°C, 24 h, no turbidity, at least three independent repeats
# Excerpt: as §4
# S. typhimurium 14028 = assay: MIC, modified microtiter dilution; assay type: cell-based, Salmonella typhimurium; details: MHB, 2–7 × 10^5 CFU/ml, 37°C, 24 h, no turbidity, at least three independent repeats
# Excerpt: as §4
# S. aureus 25923 = assay: MIC, modified microtiter dilution; assay type: cell-based, Staphylococcus aureus; details: MHB, 2–7 × 10^5 CFU/ml, 37°C, 24 h, no turbidity, at least three independent repeats
# Excerpt: as §4
# S. aureus 29213 [5] = assay: MIC, modified microtiter dilution; assay type: cell-based, Staphylococcus aureus; details: MHB, 2–7 × 10^5 CFU/ml, 37°C, 24 h, no turbidity, at least three independent repeats
# Excerpt: as §4
# RAW 264.7 cells = assay: Cytotoxicity, MTT dye reduction assay; assay type: cell-based, murine; details: highest concentration of 128 μM, 4 h, three independent repeats
# Experimental: The cytotoxicity of peptides was determined by healthy human erythrocytes and the murine macrophage cell line RAW 264.7 via a hemolysis assay and MTT dye reduction assay, respectively ([Wang et al., 2018]). In the hemolysis assay, fresh hRBCs from healthy people were centrifuged for 5 min at 1,000 × g and then washed three times with PBS (pH = 7.2). The 100 μL erythrocyte suspension and peptides were incubated for 1.5 h in an incubator at 37°C. The 96-well plates were centrifuged at 1,000 × g for 5 min, and the supernatants were carefully aspirated. The absorbance at 570 nm indicated the leakage of hemoglobin. The hRBCs in the PBS sample was used as the negative control, and 0.1% Triton X-100 addition served as the positive control. In the MTT dye reduction assay, 1.0–2.0 × 10^5 cells were plated in 96-well plates and then treated with various concentrations of peptides for 4 h at 37°C in a 5% CO2 incubator. Subsequently, 50 μL of MTT was added to the plated cells at a final concentration of 0.5 mg/mL and incubated for 4 h. Then, the cells were centrifuged at 1000 × g for 5 min, and the supernatants were discarded. Formazan crystals were dissolved in 150 μL of DMSO, and the OD570 nm was measured using a microplate reader (TECAN GENios F129004; TECAN, Austria). The experiment was repeated three times independently.
# E. coli UB1005 = assay: MIC, modified microtiter dilution; assay type: cell-based, Escherichia coli; details: MHB, 2–7 × 10^5 CFU/ml, 37°C, 24 h, no turbidity, at least three independent repeats
# Excerpt: as §4
# E. coli 25922 = assay: MIC, modified microtiter dilution; assay type: cell-based, Escherichia coli; details: MHB, 2–7 × 10^5 CFU/ml, 37°C, 24 h, lowest concentration with no turbidity, at least three independent repeats
# Excerpt: as §4
smiles,measurement,setting,value
"CN[C@H](CC(C)C)C(=O)N[C@H]1C(=O)N[C@@H](CC(N)=O)C(=O)N[C@H]2C(=O)N[C@H]3C(=O)N[C@H](C(=O)N[C@H](C(=O)O)c4cc(O)cc(O)c4-c4cc3ccc4O)[C@H](O)c3ccc(c(Cl)c3)Oc3cc2cc(c3O[C@@H]2O[C@H](CO)[C@@H](O)[C@H](O)[C@H]2O[C@H]2C[C@](C)(N)[C@H](O)[C@H](C)O2)Oc2ccc(cc2Cl)[C@H]1O [vancomycin, reference compound]",histomorphological changes of skin tissue (HE),S. aureus 29213 [1],good recovery
same,TNF-α generation in infected skin,TNF-α,suppressed
same,IL-6 generation in infected skin,IL-6,suppressed
same,decrease in bacterial colonies at infection site versus control group,"S. aureus 29213 [2]; 100 μL injected at the infected site 1 h after infection, skin homogenate colony count after 24 h, P < 0.01",10 fold
same,"ulceration (lesion) size, length × width","S. aureus 29213 [2]; 100 μL, 1 h after infection",significantly reduced ulceration sizes
C[C@H](NC(=O)[C@H](C)NC(=O)[C@H](Cc1c[nH]c2ccccc12)NC(=O)[C@H](Cc1c[nH]c2ccccc12)NC(=O)[C@H](Cc1c[nH]c2ccccc12)NC(=O)[C@H](CCCNC(=N)N)NC(=O)[C@@H]1CSSC[C@H](N)C(=O)N[C@@H](C)C(=O)N[C@@H](CO)C(=O)N[C@@H](Cc2ccc(O)cc2)C(=O)N[C@@H](Cc2ccccc2)C(=O)N1)C(N)=O [Peptide S3] (H-CASYFCRWWWAA-NH2; disulfide 1-6; N-terminus assumed),antimicrobial activity against the tested microorganisms,[3],failed to show antimicrobial activity
same,MIC E. coli K99,E. coli K99,>64 µM
same,MIC E. coli K88,E. coli K88,>64 µM
same,"MIC against S. aureus 29213, FeCl3",S. aureus 29213 [4]; 4 μM FeCl3,>64 µM
same,"MIC against S. aureus 29213, NH4Cl",S. aureus 29213 [4]; 6 μM NH4Cl,>64 µM
same,"MIC against S. aureus 29213, ZnCl2",S. aureus 29213 [4]; 8 μM ZnCl2,>64 µM
same,"MIC against S. aureus 29213, MgCl2",S. aureus 29213 [4]; 1 mM MgCl2,>64 µM
same,"MIC against S. aureus 29213, CaCl2",S. aureus 29213 [4]; 2 mM CaCl2,>64 µM
same,"MIC against S. aureus 29213, KCl",S. aureus 29213 [4]; 4.5 mM KCl,>64 µM
same,"MIC against S. aureus 29213, NaCl",S. aureus 29213 [4]; 150 mM NaCl,>64 µM
same,MIC S. pullorum 7913,S. pullorum 7913,>64 µM
same,MIC P. aeruginosa 27853,P. aeruginosa 27853,>64 µM
same,MIC L. plantarum 8014,L. plantarum 8014,>64 µM
same,MIC L. rhamnosus 1.0385,L. rhamnosus 1.0385,>64 µM
same,MIC L. rhamnosus 7469,L. rhamnosus 7469,>64 µM
same,MIC L. rhamnosus 1.0936,L. rhamnosus 1.0936,>64 µM
same,MIC L. rhamnosus 1.0911,L. rhamnosus 1.0911,>64 µM
same,MIC MRSA 43300,MRSA 43300,>64 µM
same,MIC S. typhimurium 7731,S. typhimurium 7731,>64 µM
same,MIC S. typhimurium 14028,S. typhimurium 14028,>64 µM
same,MIC S. aureus 25923,S. aureus 25923,>64 µM
same,MIC S. aureus 29213,S. aureus 29213 [5],>64 µM
same,RAW 264.7 cell survival rate,RAW 264.7 cells,84%
same,MIC E. coli UB1005,E. coli UB1005,>64 µM
same,MIC E. coli 25922,E. coli 25922,>64 µM
